In one data set the test system is SNU-16 cell. Nature of the data set: Cell proliferation assay (CCK-8 or MTT), SNU-16. Format: cell-based, Human. The note with it: Homo sapiens, SNU-16 is FGFR2-amplified cell type, 72 h. As to the method: Human gastric cancer cell line SNU-16 was purchased from American Type Culture Collection (ATCC, Manssas, VA, USA). All the cell lines were routinely maintained in complete medium according to the suppliers’ recommendations.
Cells were seeded in 96-well tissue culture plates. On the day when seeding, the cells were exposed to various concentrations of compounds and further cultured for 72 h at 37 °C. Finally, cell proliferation was determined using Cell Counting Kit (CCK-8) or the thiazolyl blue tetrazolium bromide (MTT, from Sigma-Aldrich, St. Louis, MO, USA) assay. The IC50 values were calculated by concentration–response curve fitting using a SoftMax pro-based four-parameter method.

For another data set, the target named is FGFR1 (Homo sapiens, UniProt P11362). Nature of the data set: ELISA kinase assay, FGFR1. Format: biochemical. As to conditions: ELISA; average values from two separate experiments. As for the experimental part:
Elisa kinase assay. The effects of the indicated compounds on the activities of receptor tyrosine kinases were determined using enzyme-linked immunosorbent assays (ELISAs) with purified recombinant proteins. Briefly, 20 μg/mL poly (Glu,Tyr)4:1 (Sigma, St Louis, MO, USA) was pre-coated in 96-well plates as a substrate. A 50 μL aliquot of 10 μmol/L ATP solution diluted in kinase reaction buffer (50 mmol/L HEPES [pH 7.4], 50 mmol/L MgCl2, 0.5 mmol/L MnCl2, 0.2 mmol/L Na3VO4, and 1 mmol/L DTT) was added to each well; 1 μL of different compounds with indicated concentration diluted in 1% DMSO (v/v) (Sigma, St Louis, MO, USA) were then added to each reaction well. DMSO (1%, v/v) was used as the negative control. The kinase reaction was initiated by the addition of purified tyrosine kinase proteins (FGFR1, FGFR2, FGFR3, FGFR4, ALK, Bcr-Abl, EPH-A2, Flt-1, RET, c-Src, IGF1R, c-Met, EGFR, ErbB2) diluted in 49 μL of kinase reaction buffer solution. After incubation for 60 min at 37 °C, the plate was washed three times with phosphate-buffered saline (PBS) containing 0.1% Tween 20 (T-PBS). Anti-phosphotyrosine (PY99) antibody (100 μL; 1:500, diluted in 5 mg/mL BSA T-PBS) was then added. After a 30 min incubation at 37 °C, the plate was washed three times, and 100 μL horseradish peroxidase-conjugated goat anti-mouse IgG (1:2000, diluted in 5 mg/mL BSA T-PBS) was added. The plate was then incubated at 37 °C for 30 min and washed 3 times. A 100 μL aliquot of a solution containing 0.03% H2O2 and 2 mg/mL o-phenylenediamine in 0.1 mol/l citrate buffer (pH 5.5) was added. The reaction was terminated by the addition of 50 μL of 2 mol/l H2SO4 as the colour changed, and the plate was analysed using a multi-well spectrophotometer (SpectraMAX 190, Molecular Devices, Sunnyvale, CA, USA) at 490 nm. The inhibition rate (%) was calculated using the following equation: [1-(A490/A490 control)] × 100%. The IC50 values were calculated from the inhibition curves in two separate experiments.

Each structure is given as a SMILES string.

Sequence of FGFR1 (P11362 22-822): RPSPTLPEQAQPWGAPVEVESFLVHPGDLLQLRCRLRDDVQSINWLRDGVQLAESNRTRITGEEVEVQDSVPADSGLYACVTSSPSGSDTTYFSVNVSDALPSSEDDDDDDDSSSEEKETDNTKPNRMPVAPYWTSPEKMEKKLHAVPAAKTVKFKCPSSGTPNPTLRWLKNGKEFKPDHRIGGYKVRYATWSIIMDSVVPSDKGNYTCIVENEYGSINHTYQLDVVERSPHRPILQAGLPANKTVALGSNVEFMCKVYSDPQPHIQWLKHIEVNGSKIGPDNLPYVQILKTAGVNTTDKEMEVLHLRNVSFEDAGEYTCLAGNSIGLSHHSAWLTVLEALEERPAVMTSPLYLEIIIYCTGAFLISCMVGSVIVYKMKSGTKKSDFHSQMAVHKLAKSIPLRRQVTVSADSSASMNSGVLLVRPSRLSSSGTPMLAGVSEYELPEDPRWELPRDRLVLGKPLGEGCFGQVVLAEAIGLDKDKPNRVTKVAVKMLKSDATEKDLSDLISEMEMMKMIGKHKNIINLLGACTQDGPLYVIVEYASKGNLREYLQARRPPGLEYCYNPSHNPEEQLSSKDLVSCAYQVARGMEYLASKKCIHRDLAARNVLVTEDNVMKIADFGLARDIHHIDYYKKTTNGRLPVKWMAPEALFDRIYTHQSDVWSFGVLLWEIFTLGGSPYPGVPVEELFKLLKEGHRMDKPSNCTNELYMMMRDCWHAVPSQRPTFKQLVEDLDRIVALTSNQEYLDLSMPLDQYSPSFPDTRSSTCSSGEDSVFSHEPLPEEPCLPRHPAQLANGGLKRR

`COc1cc(F)cc(-c2ccc3c(NC(=O)c4ccc(N5CCCN(C)CC5)cc4)n[nH]c3c2)c1` [9w, N-(6–(3-fluoro-5-methoxyphenyl)-1H-indazol-3-yl)-4–(4-methyl-1,4-diazepan-1-yl)benzamide] displayed a melting point of 230.4 to 234.6 °C. Besides, the concentration for half-maximal inhibition (IC50) in the data set on SNU-16 cell (Table 3) was 0.557 µM. The compound further showed an IC50 against FGFR1 of 0.0033 µM.

For the compound `COc1cc(F)cc(-c2ccc3c(NC(=O)c4ccc(CN5CCN(C)CC5)cc4)n[nH]c3c2)c1` [9x, N-(6–(3-fluoro-5-methoxyphenyl)-1H-indazol-3-yl)-4-((4-methylpiperazin-1-yl)methyl)benzamide], the melting point fell in the range of 240.3 to 242.5 °C. Moreover, the concentration for half-maximal inhibition (IC50) in the data set on SNU-16 cell (Table 3) is greater than 5 µM. Besides, the half-inhibitory concentration (IC50) against FGFR1 was greater than 1 µM.

`COc1cc(F)cc(-c2ccc3c(NC(=O)c4ccc(N5CCN(C)CC5)cc4)n[nH]c3c2)c1` [9y, N-(6–(3-fluoro-5-methoxyphenyl)-1H-indazol-3-yl)-4–(4-methylpiperazin-1-yl)benzamide] displayed a melting point of 237.4 to 241.6 °C. In the data set with SNU-16 cell (Table 3), the midpoint of inhibition, the IC50, lay at 0.639 µM. Further, inhibition on FGFR1 was half-maximal at 0.0102 µM (IC50).

Take `COc1cc(F)cc(-c2ccc3c(NC(=O)c4cnc(N5CCN(C)CC5)cn4)n[nH]c3c2)c1` [9z, N-(6–(3-fluoro-5-methoxyphenyl)-1H-indazol-3-yl)-5–(4-methylpiperazin-1-yl)pyrazine-2-carboxamide]: the melting point fell in the range of 237.7 to 240.3 °C. The IC50 in the data set on SNU-16 cell (Table 3) worked out at 0.739 µM. At FGFR1, the concentration for half-maximal inhibition (IC50) was determined as 0.0046 µM.

Regarding `COc1cccc(-c2ccc3nc(NC(=O)c4ccc(N5CCN(C)CC5)cc4)sc3c2)c1` [12a, N-(6–(3-methoxyphenyl)benzo[d]thiazol-2-yl)-4–(4-methylpiperazin-1-yl) benzamide], the melting point fell in the range of 230.5 to 233.2 °C. Besides, the IC50 with SNU-16 cell (Table 1) is greater than 5 µM. Moreover, the IC50 against FGFR1 was greater than 1 µM.

In the case of `COc1cc(OC)cc(-c2ccc3nc(NC(=O)c4ccc(N5CCN(C)CC5)cc4)sc3c2)c1` [12b, N-(6–(3,5-dimethoxyphenyl)benzo[d]thiazol-2-yl)-4–(4-methylpiperazin-1-yl) benzamide], the melting point was in the range of 234.6 to 238.2 °C. In the data set with SNU-16 cell (Table 1), this compound had a half-inhibitory concentration (IC50) greater than 5 µM. Moreover, the IC50 against FGFR1 was greater than 1 µM.

In turn, `COc1cc(-c2ccc3nc(NC(=O)c4ccc(N5CCN(C)CC5)cc4)sc3c2)cc(OC)c1OC` [12c, 4–(4-methylpiperazin-1-yl)-N-(6–(3,4,5-trimethoxyphenyl)benzo[d]thiazol-2-yl)benzamide] showed a melting point of 236.4 to 238.3 °C. In the data set on SNU-16 cell (Table 1), this compound came in with a half-inhibitory concentration (IC50) greater than 5 µM. The compound further came in with a half-maximal inhibitory concentration (IC50) at FGFR1 greater than 1 µM.

For the compound `COc1cccc(-c2ccc3nc(NC(=O)c4ccc(N5CCN(C)CC5)cc4)sc3c2)c1F` [12d, N-(6–(2-fluoro-3-methoxyphenyl)benzo[d]thiazol-2-yl)-4–(4-methylpiperazin-1-yl)benzamide], the melting point lay within 232.5 to 235.2 °C. The IC50 in the data set with SNU-16 cell (Table 1) was greater than 5 µM. Further, the concentration for half-maximal inhibition (IC50) against FGFR1 is greater than 1 µM.

`CN1CCN(c2ccc(C(=O)Nc3n[nH]c(CCc4ccccc4)n3)cc2)CC1` [18a, 4–(4-methylpiperazin-1-yl)-N-(5-phenethyl-1H-1,2,4-triazol-3-yl)benzamide]: the melting point lay in the range of 218.1 to 222.5 °C. Besides, the IC50 in the data set on SNU-16 cell (Table 1) is greater than 5 µM. The compound further showed a 50% inhibitory concentration (IC50) against FGFR1 greater than 1 µM.

`COc1cc(CCc2nc(NC(=O)c3ccc(N4CCN(C)CC4)cc3)n[nH]2)cc(OC)c1` [18c, N-(5–(3,5-dimethoxyphenethyl)-1H-1,2,4-triazol-3-yl)-4–(4-methylpiperazin-1-yl)benzamide] gave a melting point of 220.9 to 223.3 °C. This compound displayed a half-maximal inhibitory concentration (IC50) with SNU-16 cell (Table 1) greater than 5 µM. On FGFR1, this compound gave a half-inhibitory concentration (IC50) greater than 1 µM.

The record behind these values is article PMC6844396, “Design, synthesis and biological evaluation of novel 1H-1,2,4-triazole, benzothiazole and indazole-based derivatives as potent FGFR1 inhibitors viafragment-based virtual screening” (Journal of Enzyme Inhibition and Medicinal Chemistry, 2019).
